“And” between values parts separate entries of the source, which are not always exact repeats. Identical values can stand only once.
Target: Sphingosine 1-phosphate receptor 5 (Homo sapiens) (UniProt Q9H228)
Test: Inhibition of [33P]-S1P binding to human Sphingosine 1-phosphate receptor 5 expressed on CHO cell membranes

Chain of Sphingosine 1-phosphate receptor 5 (Homo sapiens) (Q9H228 whole entry, looked up): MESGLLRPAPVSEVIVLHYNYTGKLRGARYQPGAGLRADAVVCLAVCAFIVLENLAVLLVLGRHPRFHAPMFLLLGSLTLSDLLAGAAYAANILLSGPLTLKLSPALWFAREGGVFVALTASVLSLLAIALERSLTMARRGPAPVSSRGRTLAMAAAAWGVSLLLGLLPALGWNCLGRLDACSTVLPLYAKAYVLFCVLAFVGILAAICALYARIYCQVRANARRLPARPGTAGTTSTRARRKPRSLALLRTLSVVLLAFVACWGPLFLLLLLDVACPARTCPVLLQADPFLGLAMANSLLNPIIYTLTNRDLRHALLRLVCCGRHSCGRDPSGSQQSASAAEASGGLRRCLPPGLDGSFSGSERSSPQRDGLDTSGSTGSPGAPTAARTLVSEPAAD

SMILES | IC50
CCCCCCCCc1ccc(CC[C@@H](N)CC(=O)[PH](O)(O)O)cc1 | 4.5 nM and 33 nM
CCCCCCCCc1ccc(CCC(N)C(=O)C[PH](O)(O)O)cc1 (centres undefined) | 240 nM and 76 nM
CCCCCCCCc1ccc(CC[C@H](N)CC(=O)[PH](O)(O)O)cc1 | 27 nM and 73 nM
CCCCCCCCc1ccc(CCC(N)CCC(=O)O)cc1 (centres undefined) [4-Amino-6-(4-octyl-phenyl)-hexanoic acid] | 1000 nM
